Experimental data reported in the NIST ThermoML archive (doi:10.1016/j.jct.2018.12.012).

Assay: xn = mol fraction of the nth substance listed
Conditions: 100 kPa, Liquid; for speed of sound: Frequency=3 MHz, Single path-length method; for mass density: Vibrating tube method

CCCCNCCCC [dibutylamine] + CCCC(C)O
Conditions | mass density, 293.15 K [kg/m3] | mass density, 298.15 K [kg/m3] | mass density, 303.15 K [kg/m3] | mass density, 308.15 K [kg/m3] | speed of sound, 293.15 K [m/s] | speed of sound, 298.15 K [m/s] | speed of sound, 303.15 K [m/s] | speed of sound, 308.15 K [m/s]
x1 = 0.1007 | 804.553 | 800.484 | 796.354 | 792.163 | 1257.5 | 1238.8 | 1220.2 | 1201.8
x1 = 0.1998 | 799.644 | 795.528 | 791.368 | 787.153 | 1261.6 | 1243 | 1224.2 | 1205.4
x1 = 0.3001 | 794.588 | 790.443 | 786.26 | 782.034 | 1264.1 | 1245.1 | 1226.2 | 1207.6
x1 = 0.4 | 789.453 | 785.286 | 781.088 | 776.854 | 1265 | 1246.3 | 1227.2 | 1208.3
x1 = 0.5004 | 784.348 | 780.174 | 775.972 | 771.739 | 1265.7 | 1246.5 | 1227.4 | 1208.4
x1 = 0.6 | 779.579 | 775.399 | 771.197 | 766.971 | 1266 | 1247 | 1227.7 | 1208.5
x1 = 0.7004 | 774.754 | 770.581 | 766.391 | 762.183 | 1266.2 | 1246.7 | 1227.3 | 1208.2
x1 = 0.7993 | 770.026 | 765.866 | 761.694 | 757.505 | 1265.8 | 1246.4 | 1227.8 | 1207.2
x1 = 0.9004 | 765.576 | 761.434 | 757.282 | 753.116 | 1265.8 | 1245.8 | 1226 | 1206.7
x1 = 1 | 759.579 | 755.48 | 751.374 | 747.268 | 1260.1 | 1240.1 | 1220.3 | 1200.6
